In patent publication US6444787B1, “Method of isolating a peptide which immunologically mimics microbial carbohydrates including group B streptococcal carbohydrates and the use thereof in a vaccine” (Research Development Institute, Inc., priority 1997, dated 2002):
Ends that are not written are not given here.

Test system: anti-GBS antibodies
Experiment: ELISA, binding of antibodies to synthetic peptide
Set-up: species or system murine
Conditions: peptide coated at 10 μg/ml; FIG. 1 panel A
Method: Microtiter wells were coated with peptide at 10 μg/ml and then blocked with 1% BSA. Test antibodies were added to the wells, incubated and washed. Antibody binding was detected with alkaline phosphatase conjugated anti-Ig and then substrate. The values are A405, mean of duplicate or triplicate samples. […] The binding of all antibodies to BSA was<0.1.
Capsular polysaccharide was coated directly onto microtiter wells.

FDTGAFDPDWPAC
Binding of monoclonal antibodies S7 and S9 to peptide: seen only with antibody S9
